According to ChEMBL document CHEMBL5303573, “Mapping human microbiome drug metabolism by gut bacteria and their genes” (Nature, 2019):

Experiments:
[1] = The drug is tested on Enterococcus faecalis strain: V583 for biotransformation. The drug concentrations were measured before and after a 12-h incubation by liquid-chromatography-coupled mass spectrometry (LC–MS); settings: 2 µM
[2] = The drug is tested on Blautia hansenii strain: DSM20583 for biotransformation. The drug concentrations were measured before and after a 12-h incubation by liquid-chromatography-coupled mass spectrometry (LC–MS); settings: 2 µM
[3] = enterocloster bolteae, 12 h, 2 µM
Description: The drug is tested on Clostridium bolteae strain: ATCCBAA-613 for biotransformation. The drug concentrations were measured before and after a 12-h incubation by liquid-chromatography-coupled mass spectrometry (LC–MS)

[4] = The drug is tested on Providencia stuartii strain: ATCC25827 for biotransformation. The drug concentrations were measured before and after a 12-h incubation by liquid-chromatography-coupled mass spectrometry (LC–MS); settings: 2 µM
[5] = The drug is tested on Bacteroides fragilis strain: HMW615 for biotransformation. The drug concentrations were measured before and after a 12-h incubation by liquid-chromatography-coupled mass spectrometry (LC–MS); settings: 2 µM
[6] = The drug is tested on Bacteroides cellulosilyticus strain: DSM14838 for biotransformation. The drug concentrations were measured before and after a 12-h incubation by liquid-chromatography-coupled mass spectrometry (LC–MS); settings: 2 µM
[7] = The drug is tested on Clostridium sp. strain: fecal isolate for biotransformation. The drug concentrations were measured before and after a 12-h incubation by liquid-chromatography-coupled mass spectrometry (LC–MS); settings: 2 µM
[8] = bacteroides eggerthii, 12 h, 2 µM
Description: The drug is tested on Bacteroides eggerthii strain: DSM20697 for biotransformation. The drug concentrations were measured before and after a 12-h incubation by liquid-chromatography-coupled mass spectrometry (LC–MS)

[9] = The drug is tested on Eubacterium hallii strain: DSM3353 for biotransformation. The drug concentrations were measured before and after a 12-h incubation by liquid-chromatography-coupled mass spectrometry (LC–MS); settings: anaerobutyricum hallii, 2 µM
[10] = The drug is tested on Providencia rettgeri strain: DSM1131 for biotransformation. The drug concentrations were measured before and after a 12-h incubation by liquid-chromatography-coupled mass spectrometry (LC–MS); assay type: ADME; parameters: dose 2 uM, timepoint 0 vs 12 hours; settings: 2 µM
[11] = bacteroides stercoris, 12 h, 2 µM
Description: The drug is tested on Bacteroides stercoris strain: ATCC43183 for biotransformation. The drug concentrations were measured before and after a 12-h incubation by liquid-chromatography-coupled mass spectrometry (LC–MS)

[12] = The drug is tested on Bacteroides fragilis strain: ATCC43859 for biotransformation. The drug concentrations were measured before and after a 12-h incubation by liquid-chromatography-coupled mass spectrometry (LC–MS); settings: 2 µM
[13] = bacteroides thetaiotaomicron, 12 h, 2 µM
Description: The drug is tested on Bacteroides thetaiotaomicron strain: VPI-5482 for biotransformation. The drug concentrations were measured before and after a 12-h incubation by liquid-chromatography-coupled mass spectrometry (LC–MS)

[14] = The drug is tested on Collinsella intestinalis strain: DSM13280 for biotransformation. The drug concentrations were measured before and after a 12-h incubation by liquid-chromatography-coupled mass spectrometry (LC–MS); settings: 2 µM
[15] = The drug is tested on Ruminococcus gnavus strain: ATCC29149 for biotransformation. The drug concentrations were measured before and after a 12-h incubation by liquid-chromatography-coupled mass spectrometry (LC–MS); settings: mediterraneibacter gnavus, 2 µM
[16] = limosilactobacillus reuteri cf48-3a, 12 h, 2 µM
Description: The drug is tested on Lactobacillus reuteri CF48-3A strain: BEI HM-102 for biotransformation. The drug concentrations were measured before and after a 12-h incubation by liquid-chromatography-coupled mass spectrometry (LC–MS)

[17] = The drug is tested on Bifidobacterium longum subsp. Infantis strain: CCUG52486 for biotransformation. The drug concentrations were measured before and after a 12-h incubation by liquid-chromatography-coupled mass spectrometry (LC–MS); settings: 2 µM
[18] = segatella copri, 12 h, 2 µM
Description: The drug is tested on Prevotella copri strain: DSM18205 for biotransformation. The drug concentrations were measured before and after a 12-h incubation by liquid-chromatography-coupled mass spectrometry (LC–MS)

O=C1CN2Cc3c(ccc(Cl)c3Cl)N=C2N1 [ANAGRELIDE]
Bacterial Biotransformation [1]: Compound NOT metabolized | Bacterial Biotransformation [2]: Compound metabolized | Bacterial Biotransformation [3]: Compound NOT metabolized | Bacterial Biotransformation [4]: Compound NOT metabolized | Bacterial Biotransformation [5]: Compound NOT metabolized | Bacterial Biotransformation [6]: Compound NOT metabolized | Bacterial Biotransformation [7]: Compound metabolized | Bacterial Biotransformation [8]: Compound NOT metabolized | Bacterial Biotransformation [9]: Compound NOT metabolized | Bacterial Biotransformation [10]: Compound NOT metabolized | Bacterial Biotransformation [11]: Compound NOT metabolized | Bacterial Biotransformation [12]: Compound NOT metabolized | Bacterial Biotransformation [13]: Compound NOT metabolized | Bacterial Biotransformation [14]: Compound NOT metabolized | Bacterial Biotransformation [15]: Compound NOT metabolized

CC(C)(C#N)c1cc(Cn2cncn2)cc(C(C)(C)C#N)c1 [ANASTROZOLE]
Bacterial Biotransformation [16]: Compound NOT metabolized | Bacterial Biotransformation [17]: Compound NOT metabolized | Bacterial Biotransformation [1]: Compound NOT metabolized | Bacterial Biotransformation [2]: Compound metabolized | Bacterial Biotransformation [3]: Compound NOT metabolized | Bacterial Biotransformation [4]: Compound NOT metabolized | Bacterial Biotransformation [5]: Compound NOT metabolized | Bacterial Biotransformation [6]: Compound NOT metabolized | Bacterial Biotransformation [7]: Compound metabolized | Bacterial Biotransformation [8]: Compound metabolized | Bacterial Biotransformation [9]: Compound NOT metabolized | Bacterial Biotransformation [11]: Compound metabolized | Bacterial Biotransformation [13]: Compound metabolized | Bacterial Biotransformation [18]: Compound metabolized | Bacterial Biotransformation [15]: Compound NOT metabolized

CC(C)NCC(O)COc1ccc(COCCOC(C)C)cc1.CC(C)NCC(O)COc1ccc(COCCOC(C)C)cc1.O=C(O)/C=C/C(=O)O (stereo not given) [BISOPROLOL FUMARATE]
Bacterial Biotransformation [17]: Compound NOT metabolized | Bacterial Biotransformation [1]: Compound NOT metabolized | Bacterial Biotransformation [3]: Compound NOT metabolized | Bacterial Biotransformation [4]: Compound NOT metabolized | Bacterial Biotransformation [5]: Compound NOT metabolized | Bacterial Biotransformation [6]: Compound NOT metabolized | Bacterial Biotransformation [7]: Compound NOT metabolized | Bacterial Biotransformation [8]: Compound NOT metabolized | Bacterial Biotransformation [9]: Compound NOT metabolized | Bacterial Biotransformation [10]: Compound NOT metabolized | Bacterial Biotransformation [11]: Compound NOT metabolized | Bacterial Biotransformation [12]: Compound NOT metabolized | Bacterial Biotransformation [13]: Compound NOT metabolized | Bacterial Biotransformation [18]: Compound NOT metabolized | Bacterial Biotransformation [14]: Compound NOT metabolized | Bacterial Biotransformation [15]: Compound NOT metabolized

CCCC(C)(COC(N)=O)COC(=O)NC(C)C (stereo not given) [CARISOPRODOL]
Bacterial Biotransformation [17]: Compound NOT metabolized | Bacterial Biotransformation [1]: Compound NOT metabolized | Bacterial Biotransformation [2]: Compound metabolized | Bacterial Biotransformation [3]: Compound NOT metabolized | Bacterial Biotransformation [4]: Compound NOT metabolized | Bacterial Biotransformation [5]: Compound metabolized | Bacterial Biotransformation [6]: Compound metabolized | Bacterial Biotransformation [7]: Compound metabolized | Bacterial Biotransformation [9]: Compound NOT metabolized | Bacterial Biotransformation [11]: Compound metabolized | Bacterial Biotransformation [12]: Compound metabolized | Bacterial Biotransformation [13]: Compound metabolized | Bacterial Biotransformation [18]: Compound metabolized | Bacterial Biotransformation [14]: Compound NOT metabolized | Bacterial Biotransformation [15]: Compound NOT metabolized

O=C(O)COCCN1CCN(C(c2ccccc2)c2ccc(Cl)cc2)CC1 (stereo not given) [CETIRIZINE]
Bacterial Biotransformation [16]: Compound NOT metabolized | Bacterial Biotransformation [17]: Compound NOT metabolized | Bacterial Biotransformation [1]: Compound NOT metabolized | Bacterial Biotransformation [2]: Compound metabolized | Bacterial Biotransformation [3]: Compound NOT metabolized | Bacterial Biotransformation [5]: Compound metabolized | Bacterial Biotransformation [6]: Compound metabolized | Bacterial Biotransformation [8]: Compound metabolized | Bacterial Biotransformation [9]: Compound NOT metabolized | Bacterial Biotransformation [11]: Compound metabolized | Bacterial Biotransformation [12]: Compound metabolized | Bacterial Biotransformation [13]: Compound metabolized | Bacterial Biotransformation [18]: Compound metabolized | Bacterial Biotransformation [15]: Compound NOT metabolized
